Data reported in the supplement of paper PMC13380429.

Key:
Conditions in all cases: 72 h
Caco-2 [1] = assay: relative viability EC50 (midpoint between 100% and the lowest measured viability); higher = less toxic
Calu-3 [2] = assay: as above
HepG2 [3] = assay: cell viability relative to DMSO; higher = less toxic
Caco-2 [4] = assay: as above
U2OS [5] = assay: as above
Calu-3 [6] = assay: as above
Vero E6 [7] = assay: as above
HepG2 [8] = assay: drug sensitivity score (DSS) for viability; higher = more toxic; extreme values may be limits of the assay
Caco-2 [9] = assay: as above
U2OS [10] = assay: as above
Calu-3 [11] = assay: as above
Vero E6 [12] = assay: as above
HepG2 [13] = assay: relative viability EC50 (midpoint between 100% and the lowest measured viability); higher = less toxic
U2OS [14] = assay: as above
Vero E6 [15] = assay: as above

| SMILES | relative viability EC50 (Caco-2 [1]) [µM] | relative viability EC50 (Calu-3 [2]) [µM] | cell viability (HepG2 [3]; 1 nM) [%] | cell viability (HepG2 [3]; 10 nM) [%] | cell viability (HepG2 [3]; 100 nM) [%] | cell viability (HepG2 [3]; 1000 nM) [%] | cell viability (HepG2 [3]; 10000 nM) [%] | cell viability (Caco-2 [4]; 1 nM) [%] | cell viability (Caco-2 [4]; 10 nM) [%] | cell viability (Caco-2 [4]; 100 nM) [%] | cell viability (Caco-2 [4]; 1000 nM) [%] | cell viability (Caco-2 [4]; 10000 nM) [%] | cell viability (U2OS [5]; 1 nM) [%] | cell viability (U2OS [5]; 10 nM) [%] | cell viability (U2OS [5]; 100 nM) [%] | cell viability (U2OS [5]; 1000 nM) [%] | cell viability (U2OS [5]; 10000 nM) [%] | cell viability (Calu-3 [6]; 1 nM) [%] | cell viability (Calu-3 [6]; 10 nM) [%] | cell viability (Calu-3 [6]; 100 nM) [%] | cell viability (Calu-3 [6]; 1000 nM) [%] | cell viability (Calu-3 [6]; 10000 nM) [%] | cell viability (Vero E6 [7]; 1 nM) [%] | cell viability (Vero E6 [7]; 10 nM) [%] | cell viability (Vero E6 [7]; 100 nM) [%] | cell viability (Vero E6 [7]; 1000 nM) [%] | cell viability (Vero E6 [7]; 10000 nM) [%] | drug sensitivity score (HepG2 [8]) | drug sensitivity score (Caco-2 [9]) | drug sensitivity score (U2OS [10]) | drug sensitivity score (Calu-3 [11]) | drug sensitivity score (Vero E6 [12]) | relative viability EC50 (HepG2 [13]) [µM] | relative viability EC50 (U2OS [14]) [µM] | relative viability EC50 (Vero E6 [15]) [µM] |
| --- | --- | --- | --- | --- | --- | --- | --- | --- | --- | --- | --- | --- | --- | --- | --- | --- | --- | --- | --- | --- | --- | --- | --- | --- | --- | --- | --- | --- | --- | --- | --- | --- | --- | --- | --- |
| CN1CCN(c2cccc(Nc3nc4c(-c5ccc(S(C)(=O)=O)cc5)cccn4n3)c2)CC1 | > 10 | > 10 | 100 | 95.9 | 94.1 | 84.8 | 58.9 | 78.9 | 95.2 | 95.1 | 93.1 | 91 | 96.1 | 102 | 94.8 | 95.8 | 68.9 | 97.9 | 99.4 | 91.8 | 125 | 136 | 96.4 | 95.1 | 94.8 | 96.3 | 73.6 | 3.6 | 0 | 2.1 | 0 | 1.6 |  |  |  |
| COc1cc(NC(=O)c2ccccn2)ccc1Cl | > 10 |  | 92.9 | 99.2 | 91 | 102 | 94.9 | 100 | 94.5 | 95.3 | 90.8 | 92.3 | 100 | 95.3 | 101 | 99.4 | 96.3 |  |  |  |  |  | 101 | 99 | 96.3 | 102 | 95.3 | 0 | 0 | 0 |  | 0 | > 10 | > 10 | > 10 |
| CS(=O)(=O)CCNCc1nc(-c2ccc3ncnc(Nc4ccc(OCc5cccc(F)c5)c(Cl)c4)c3c2)cs1 |  |  | 106 | 111 | 93.5 | 102 | 104 | 97.1 | 97.5 | 90.5 | 80.8 | 73.1 | 99.9 | 100 | 96.7 | 94.2 | 89.8 |  |  |  |  |  | 95 | 98.3 | 93.3 | 79 | 72.5 | 0 | 3.5 | 0 |  | 3.7 | > 10 | > 10 |  |
| Cn1ccc2cc3c(cc21)CCN3C(=O)Nc1cccnc1 | > 10 |  | 105 | 114 | 95.7 | 95.3 | 100 | 88.8 | 93.2 | 98.1 | 104 | 81.3 | 98.2 | 102 | 93.9 | 96 | 95.1 |  |  |  |  |  | 99.1 | 96.8 | 100 | 95.5 | 100 | 0 | 0.1 | 0 |  | 0 | > 10 | > 10 | > 10 |
| Nc1ncnc2[nH]nc(Nc3ccc(F)cc3)c12 |  | > 10 | 114 | 101 | 108 | 96.5 | 66.2 | 95 | 93.5 | 106 | 93.1 | 73.4 | 98.5 | 98.9 | 98.4 | 96 | 83 | 102 | 101 | 101 | 95.6 | 79.2 | 107 | 103 | 99.8 | 101 | 54.4 | 2.1 | 2.1 | 0.8 | 1.2 | 2.3 |  | > 10 |  |
| O=C(C1CC1)N1CC[C@@H](Cc2n[nH]c(=O)n2-c2ccc(-c3ccc4occc4c3)cc2)C1 | > 10 |  | 109 | 106 | 93.2 | 80.2 | 71.2 | 104 | 97.8 | 91.9 | 89.5 | 76.3 | 102 | 96.2 | 101 | 97.3 | 99.7 |  |  |  |  |  | 97.4 | 101 | 98.8 | 100 | 98.9 | 3.6 | 1.7 | 0 |  | 0 |  | > 10 | > 10 |
| O=C1NC(=O)c2cc(Nc3ccccc3)c(Nc3ccccc3)cc21 | > 10 | > 10 | 109 | 106 | 105 | 100 | 56.4 | 92.3 | 101 | 91.7 | 102 | 82.5 |  |  |  |  |  | 108 | 96.9 | 106 | 98.5 | 89.3 | 96.3 | 99.2 | 98.6 | 97.4 | 86.3 | 2.2 | 0.3 |  | 0 | 0.3 |  |  | > 10 |
| O=C1Nc2cc(Cl)c(Cl)cc2N2CCNC[C@H]12 | > 10 | > 10 |  |  |  |  |  | 110 | 100 | 102 | 92.2 | 85.9 | 102 | 94.9 | 100 | 95 | 96.2 | 103 | 95.1 | 97.3 | 97.7 | 92.5 | 104 | 100 | 100 | 99.1 | 95.7 |  | 0.7 | 0 | 0 | 0 |  | > 10 | > 10 |
| O=c1[nH]c([C@@H]2CCCN2)nc2c1oc1ccc(Cl)cc12 | > 10 |  | 97 | 98.2 | 104 | 83.5 | 60.3 | 96.9 | 87 | 87.5 | 93.5 | 83.1 | 95 | 100 | 93.4 | 96.7 | 90.9 |  |  |  |  |  | 103 | 99.7 | 104 | 90.9 | 71.8 | 4.2 | 1.2 | 0 |  | 2.4 |  | > 10 |  |
| OC[C@H]1O[C@@H](n2cnc3c(NC4CCCC4)nc(Cl)nc32)[C@H](O)[C@@H]1O [2-chloro-N6-cyclopentyladenosine] |  | > 10 |  |  |  |  |  |  |  |  |  |  |  |  |  |  |  | 105 | 91.8 | 104 | 92.6 | 106 | 102 | 106 | 98.5 | 99.5 | 104 |  |  |  | 0 | 0 |  |  | > 10 |
| O=C(/C=C/c1cccnc1)c1ccncc1 [3PO] | > 10 |  | 103 | 102 | 93.2 | 112 | 72.7 | 103 | 97.1 | 99.7 | 92.3 | 77.3 | 101 | 99.7 | 100 | 99 | 82.5 |  |  |  |  |  | 107 | 112 | 100 | 111 | 87.7 | 0.7 | 1.8 | 0.5 |  | 0 |  | > 10 | > 10 |
| CC(C)(O)CC[C@@H](O)[C@](C)(O)[C@H]1CC[C@@]2(O)C3=CC(=O)[C@@H]4C[C@@H](O)[C@@H](O)C[C@]4(C)[C@H]3CC[C@]12C [20-hydroxyecdysone] | > 10 | > 10 |  |  |  |  |  | 98.8 | 98.4 | 85.5 | 96.8 | 97.1 | 98 | 101 | 99.2 | 99.7 | 102 | 93.6 | 101 | 91 | 102 | 114 |  |  |  |  |  |  | 0 | 0 | 0 |  |  | > 10 |  |
| COc1cccc(C=NCCN=Cc2cccc(OC)c2[O-])c1[O-].[Cl-].[Mn+3] [EUK-134] | > 10 | > 10 | 95 | 109 | 99.5 | 101 | 72.3 | 94.7 | 89 | 91.5 | 92 | 85.6 | 101 | 96.6 | 107 | 99.3 | 99 | 110 | 87.9 | 102 | 94 | 99.3 | 98.4 | 102 | 99.3 | 105 | 96 | 1.1 | 0 | 0 | 0 | 0 |  | > 10 | > 10 |
| CC(C)(N)c1cc(C(=O)N[C@@H]2CCc3ccc(Oc4ccnc5c4CCC(=O)N5)cc3C2)cc(C(F)(F)F)c1 [ML786] |  |  | 99.2 | 110 | 62.4 | 31.1 | 6.8 | 108 | 92.7 | 104 | 90.8 | 68.5 | 101 | 98.6 | 100 | 82.4 | 9.6 |  |  |  |  |  | 106 | 105 | 112 | 99 | 33.5 | 17.5 | 2.7 | 7.9 |  | 3.8 | 0.221 | 1.76 | 3.06 |
| Cc1ccc(-c2nn(C(C)(C)C)c3ncnc(N)c23)cc1 [PP-1] |  | 1.94 | 106 | 91.8 | 92.8 | 89.3 | 69 | 102 | 96.2 | 103 | 91.5 | 59.7 | 100 | 94.8 | 104 | 90.9 | 55 | 85.9 | 96.9 | 94 | 91.2 | 43.9 | 107 | 104 | 103 | 105 | 48.7 | 2.3 | 3.4 | 3.8 | 4.5 | 2.3 |  |  | 3.66 |
| CC(C)=CCc1c(O)cc(O)c2c(=O)c(O)c(-c3ccc(C(F)(F)F)cc3)oc12 [SNG-1153] | 2.6 |  | 97.3 | 98.8 | 106 | 103 | 40.2 | 92.1 | 93.8 | 98.1 | 95.8 | 40 | 96.7 | 94.7 | 94.5 | 99.9 | 43.2 | 114 | 89.6 | 108 | 99.3 | 68.1 | 100 | 94.3 | 100 | 93 | 50.7 | 3 | 3.9 | 3.1 | 1.5 | 3.8 | 3.43 | 3.14 |  |
